Converted amounts (≈) assume the structure as drawn. The source made the active and inactive calls. No cut-off for these calls is given here. Numbered stars: 1 amine (or outer) side, 2 acyl side, 3 side chain; on linkers, the order of the positions; unused ones are H or OH. Bridge positions count the residues as written; N and C are the ends. Square brackets hold non-standard residues; d marks the D form. Peptide text beside a SMILES is read from it. * marks the point of attachment. hTyr(3S-OH,4S-OH,3'-OSO3H) = N[C@H](C(=O)O)[C@H](O)[C@@H](O)c1ccc(O)c(OS(=O)(=O)O)c1; Orn(4R-OH,5R-OH) = O=C([C@H](C[C@@H](O)[C@@H](O)N[*:3])N[*:1])[*:2]; Pro(3S-OH,4S-Me) = C[C@H]1CN[C@H](C(=O)O)[C@H]1O; X1 = CCCCCOc1ccc(-c2cc(-c3ccc(C(=O)*)cc3)no2)cc1; Gln(3R-OH) = NC(=O)C[C@@H](O)[C@H](N)C(=O)O; Hyp = O=C(O)[C@@H]1C[C@@H](O)CN1
Columns and labels:
Candida orthopsilosis [1] = experiment: Antifungal activity against Candida orthopsilosis clinical isolate bloodstream form assessed as time required for 90% reduction in fungal growth at 4 mg/L by time-kill assay; type: functional
Candida metapsilosis [2] = experiment: Antifungal activity against Candida metapsilosis clinical isolate bloodstream form assessed as time required for 50% reduction in fungal growth at 1 mg/L by time-kill assay; type: functional
Candida parapsilosis [3] = experiment: Fungicidal activity against Candida parapsilosis isolate CP-302 bloodstream form by CLSI method; type: functional; settings: Lodderomyces parapsilosis
Candida orthopsilosis [4] = experiment: Antifungal activity against Candida orthopsilosis clinical isolate bloodstream form assessed as time required for 99% reduction in fungal growth at 4 mg/L by time-kill assay; type: functional
Candida metapsilosis [5] = experiment: Antifungal activity against Candida metapsilosis clinical isolate bloodstream form assessed as induction of miniparadoxical effect at 16 mg/L after 48 hrs by time-kill assay; type: functional, organism-based
Candida orthopsilosis [6] = experiment: Antifungal activity against Candida orthopsilosis clinical isolate bloodstream form assessed as time required for 50% reduction in fungal growth at 0.25 mg/L by time-kill assay; type: functional
Candida orthopsilosis [7] = experiment: Antifungal activity against Candida orthopsilosis clinical isolate bloodstream form assessed as time required for 90% reduction in fungal growth at 32 mg/L by time-kill assay; type: functional
Candida orthopsilosis [8] = experiment: Antifungal activity against Candida orthopsilosis clinical isolate bloodstream form assessed as time required for 90% reduction in fungal growth at 16 mg/L by time-kill assay; type: functional
Candida orthopsilosis [9] = experiment: Antifungal activity against Candida orthopsilosis clinical isolate bloodstream form assessed as time required for 50% reduction in fungal growth at 4 mg/L by time-kill assay; type: functional
Candida orthopsilosis [10] = experiment: Antifungal activity against Candida orthopsilosis clinical isolate bloodstream form assessed as mild induction of fungal death at 0.03 to 32 mg/L after 6 hrs by time-kill assay; type: functional, organism-based
Candida metapsilosis [11] = experiment: Antifungal activity against Candida metapsilosis clinical isolate bloodstream form assessed as time required for 99% reduction in fungal growth at 0.25 mg/L by time-kill assay; type: functional
Candida parapsilosis [12] = experiment: Antifungal activity against Candida parapsilosis clinical isolate bloodstream form assessed as time required for 99.9% reduction in fungal growth at 32 mg/L by time-kill assay; type: functional
Candida parapsilosis [13] = experiment: Antifungal activity against Candida parapsilosis clinical isolate bloodstream form assessed as time required for 99.9% reduction in fungal growth at 0.25 mg/L by time-kill assay; type: functional
Candida metapsilosis [14] = experiment: Antifungal activity against Candida metapsilosis clinical isolate bloodstream form assessed as time required for 50% reduction in fungal growth at 0.25 mg/L by time-kill assay; type: functional
Candida orthopsilosis [15] = experiment: Antifungal activity against Candida orthopsilosis clinical isolate bloodstream form assessed as time required for 99% reduction in fungal growth at 16 mg/L by time-kill assay; type: functional
Candida metapsilosis [16] = experiment: Fungicidal activity against Candida metapsilosis isolate ATC193 bloodstream form by CLSI method; type: functional; settings: Lodderomyces metapsilosis, isolate ATC-193
Candida parapsilosis [17] = experiment: Antifungal activity against Candida parapsilosis clinical isolate bloodstream form assessed as time required for 99% reduction in fungal growth at 32 mg/L by time-kill assay; type: functional
Candida parapsilosis [18] = experiment: Antifungal activity against Candida parapsilosis clinical isolate bloodstream form assessed as time required for 99% reduction in fungal growth at 1 mg/L by time-kill assay; type: functional
Candida parapsilosis [19] = experiment: Fungicidal activity against Candida parapsilosis isolate CP-300 bloodstream form by CLSI method; type: functional; settings: Lodderomyces parapsilosis
Candida metapsilosis [20] = experiment: Antifungal activity against Candida metapsilosis clinical isolate bloodstream form assessed as time required for 99.9% reduction in fungal growth at 32 mg/L by time-kill assay; type: functional
Candida orthopsilosis [21] = experiment: Fungicidal activity against Candida orthopsilosis isolate CP-131 bloodstream form by CLSI method; type: functional; settings: Lodderomyces orthopsilosis
Candida parapsilosis [22] = experiment: Antifungal activity against Candida parapsilosis clinical isolate bloodstream form assessed as induction of miniparadoxical effect at 16 mg/L after 48 hrs by time-kill assay; type: functional, organism-based
Candida metapsilosis [23] = experiment: Antifungal activity against Candida metapsilosis clinical isolate bloodstream form assessed as time required for 99% reduction in fungal growth at 16 mg/L by time-kill assay; type: functional
Candida parapsilosis [24] = experiment: Antifungal activity against Candida parapsilosis clinical isolate bloodstream form assessed as time required for 90% reduction in fungal growth at 32 mg/L by time-kill assay; type: functional
Candida metapsilosis [25] = experiment: Antifungal activity against Candida metapsilosis clinical isolate bloodstream form assessed as time required for 99.9% reduction in fungal growth at 1 mg/L by time-kill assay; type: functional
Candida parapsilosis [26] = experiment: Antifungal activity against Candida parapsilosis clinical isolate bloodstream form assessed as time required for 99.9% reduction in fungal growth at 1 mg/L by time-kill assay; type: functional
Candida orthopsilosis [27] = experiment: Fungicidal activity against Candida orthopsilosis isolate ATC194 bloodstream form by CLSI method; type: functional; settings: Lodderomyces orthopsilosis, isolate ATC-194
Candida orthopsilosis [28] = experiment: Antifungal activity against Candida orthopsilosis clinical isolate bloodstream form assessed as time required for 99.9% reduction in fungal growth at 1 mg/L by time-kill assay; type: functional
Candida orthopsilosis [29] = experiment: Antifungal activity against Candida orthopsilosis clinical isolate bloodstream form assessed as time required for 99% reduction in fungal growth at 0.25 mg/L by time-kill assay; type: functional
Candida parapsilosis [30] = experiment: Antifungal activity against Candida parapsilosis clinical isolate bloodstream form assessed as inhibition of fungal regrowth at 0.03 to 32 mg/L after 6 hrs by time-kill assay; type: functional, organism-based
Candida parapsilosis [31] = experiment: Antifungal activity against Candida parapsilosis clinical isolate bloodstream form assessed as time required for 99% reduction in fungal growth at 0.25 mg/L by time-kill assay; type: functional
Candida parapsilosis [32] = experiment: Antifungal activity against Candida parapsilosis clinical isolate bloodstream form assessed as time required for 50% reduction in fungal growth at 16 mg/L by time-kill assay; type: functional
Candida parapsilosis [33] = experiment: Antifungal activity against Candida parapsilosis clinical isolate bloodstream form assessed as time required for 99% reduction in fungal growth at 16 mg/L by time-kill assay; type: functional
Candida parapsilosis [34] = experiment: Antifungal activity against Candida parapsilosis clinical isolate bloodstream form assessed as fungal count at 4 mg/L measured at 6 hrs by time-kill assay; type: functional
Candida orthopsilosis [35] = experiment: Antifungal activity against Candida orthopsilosis clinical isolate bloodstream form assessed as induction of maximal fungal death at 16 mg/L after 48 hrs by time-kill assay; type: functional, organism-based
Candida metapsilosis [36] = experiment: Antifungal activity against Candida metapsilosis clinical isolate bloodstream form assessed as time required for 99% reduction in fungal growth at 4 mg/L by time-kill assay; type: functional
Candida orthopsilosis [37] = experiment: Antifungal activity against Candida orthopsilosis clinical isolate bloodstream form assessed as time required for 99.9% reduction in fungal growth at 0.25 mg/L by time-kill assay; type: functional
Candida parapsilosis [38] = experiment: Antifungal activity against Candida parapsilosis clinical isolate bloodstream form assessed as time required for 90% reduction in fungal growth at 16 mg/L by time-kill assay; type: functional
Candida parapsilosis [39] = experiment: Antifungal activity against Candida parapsilosis clinical isolate bloodstream form assessed as fungal count at 1 mg/L measured at 6 hrs by time-kill assay; type: functional

Structure (SMILES): CC[C@H](C)C[C@H](C)CCCCCCCCC(=O)N[C@H]1C[C@@H](O)[C@@H](NCCN)NC(=O)[C@@H]2[C@@H](O)CCN2C(=O)[C@H]([C@H](O)CCN)NC(=O)[C@H]([C@H](O)[C@@H](O)c2ccc(O)cc2)NC(=O)[C@@H]2C[C@@H](O)CN2C(=O)[C@H]([C@@H](C)O)NC1=O [CASPOFUNGIN]
- Time (Candida orthopsilosis [1]): 11.35 h
- Time (Candida metapsilosis [2]): 22.3 h
- MIC (Candida parapsilosis [3]): 2 µg/mL (≈ 1.83 µM)
- Time (Candida orthopsilosis [4]): 22.7 h
- Activity (Candida metapsilosis [5]): Active
- Time (Candida orthopsilosis [6]): 17.5 h
- Time (Candida orthopsilosis [7]): 34.97 h
- Time (Candida orthopsilosis [8]): 12.82 h
- Time (Candida orthopsilosis [9]): 3.42 h
- Activity (Candida orthopsilosis [10]): Active
- Time (Candida metapsilosis [11]): >48 h
- Time (Candida parapsilosis [12]): >48 h
- Time (Candida parapsilosis [13]): >48 h
- Time (Candida metapsilosis [14]): >48 h
- Time (Candida orthopsilosis [15]): 25.64 h
- MIC (Candida metapsilosis [16]): 0.12 µg/mL (≈ 0.11 µM)
- Time (Candida parapsilosis [17]): >48 h
- Time (Candida parapsilosis [18]): >48 h
- MIC (Candida parapsilosis [19]): 2 µg/mL (≈ 1.83 µM)
- Time (Candida metapsilosis [20]): 19.8 h
- MIC (Candida orthopsilosis [21]): 2 µg/mL (≈ 1.83 µM)
- Activity (Candida parapsilosis [22]): Active
- Time (Candida metapsilosis [23]): 17.21 h
- Time (Candida parapsilosis [24]): 6.6 h
- Time (Candida metapsilosis [25]): >48 h
- Time (Candida parapsilosis [26]): >48 h
- MIC (Candida orthopsilosis [27]): 0.5 µg/mL (≈ 0.457 µM)
- Time (Candida orthopsilosis [28]): >48 h
- Time (Candida orthopsilosis [29]): >48 h
- inhibition (Candida parapsilosis [30]): inactive
- Time (Candida parapsilosis [31]): >48 h
- Time (Candida parapsilosis [32]): 2.59 h
- Time (Candida parapsilosis [33]): >48 h
- log10cfu (Candida parapsilosis [34]): 1.43 /ml
- Activity (Candida orthopsilosis [35]): Active
- Time (Candida metapsilosis [36]): >48 h
- Time (Candida orthopsilosis [37]): >48 h
- Time (Candida parapsilosis [38]): 8.61 h

Structure (SMILES): CCCCCOc1ccc(-c2cc(-c3ccc(C(=O)N[C@H]4C[C@@H](O)[C@@H](O)NC(=O)[C@@H]5[C@@H](O)[C@@H](C)CN5C(=O)[C@H]([C@H](O)CC(N)=O)NC(=O)[C@H]([C@H](O)[C@@H](O)c5ccc(O)c(OS(=O)(=O)O)c5)NC(=O)[C@@H]5C[C@@H](O)CN5C(=O)[C@H]([C@@H](C)O)NC4=O)cc3)no2)cc1 [MICAFUNGIN] (X1-[Orn(4R-OH,5R-OH)]T[Hyp][hTyr(3S-OH,4S-OH,3'-OSO3H)][Gln(3R-OH)][Pro(3S-OH,4S-Me)]; lactam 1-C)
- log10cfu (Candida parapsilosis [39]): 1.22 /ml
- Time (Candida orthopsilosis [1]): 5.53 h
- Time (Candida metapsilosis [2]): 3.06 h
- MIC (Candida parapsilosis [3]): 1 µg/mL (≈ 0.787 µM)
- Time (Candida orthopsilosis [4]): 11.06 h
- Time (Candida orthopsilosis [6]): 15.93 h
- Time (Candida orthopsilosis [7]): 5.11 h
- Time (Candida orthopsilosis [8]): 4.59 h
- Time (Candida orthopsilosis [9]): 1.66 h
- Activity (Candida orthopsilosis [10]): Active
- Time (Candida metapsilosis [11]): >48 h
- Time (Candida parapsilosis [12]): >48 h
- Time (Candida parapsilosis [13]): inactive
- Time (Candida metapsilosis [14]): >48 h
- Time (Candida orthopsilosis [15]): 9.17 h
- MIC (Candida metapsilosis [16]): 0.25 µg/mL (≈ 0.197 µM)
- Time (Candida parapsilosis [17]): >48 h
- Time (Candida parapsilosis [18]): inactive
- MIC (Candida parapsilosis [19]): 0.25 µg/mL (≈ 0.197 µM)
- Time (Candida metapsilosis [20]): 14.29 h
- MIC (Candida orthopsilosis [21]): 0.25 µg/mL (≈ 0.197 µM)
- Time (Candida metapsilosis [23]): 9.61 h
- Time (Candida parapsilosis [24]): 20.45 h
- Time (Candida metapsilosis [25]): 30.46 h
- Time (Candida parapsilosis [26]): inactive
- MIC (Candida orthopsilosis [27]): 0.5 µg/mL (≈ 0.394 µM)
- Time (Candida orthopsilosis [28]): 30.4 h
- Time (Candida orthopsilosis [29]): >48 h
- inhibition (Candida parapsilosis [30]): inactive
- Time (Candida parapsilosis [31]): inactive
- Time (Candida parapsilosis [32]): 9.5 h
- Time (Candida parapsilosis [33]): >48 h
- Activity (Candida orthopsilosis [35]): Active
- Time (Candida metapsilosis [36]): 11.79 h
- Time (Candida orthopsilosis [37]): >48 h
- Time (Candida parapsilosis [38]): 31.55 h

From ChEMBL document CHEMBL1255421, “In vitro fungicidal activities of echinocandins against Candida metapsilosis, C. orthopsilosis, and C. parapsilosis evaluated by time-kill studies” (2010)
